By IC50 is commonly meant the concentration at which inhibition is half-maximal.

The target of series [1] is soluble, sperm-specific adenylate cyclase (sAC) (Homo sapiens, UniProt Q96PN6). The series is described as follows: sAC assay (HTRF cAMP detection). In kind it is biochemical. The conditions noted are these: read-out: IC50 (inhibition of soluble adenylate cyclase). An excerpt:
In a suitable buffer system, soluble, sperm-specific adenylate cyclase catalyzes the conversion of adenosine triphosphate (ATP) to cyclic adenosine monophosphate (cAMP) and pyrophosphate. Free cAMP generated in this way is then used in a competitive detection technique, in which the binding of a europium cryptate Eu[K]-labeled anti-cAMP antibody (anti-cAMP-Eu[K]-AB) to a modified allophycocyanine-1 molecule labeled with cAMP molecules (cAMP-XL665) is prevented. In the absence of exogenous cAMP, after excitation at 335 nm there is Fluorescence Resonance Energy Transfer (FRET) between the anti-cAMP-Eu[K]-AB (FRET donor) and the cAMP-XL665 molecule (FRET acceptor). This process is quantified, time-resolved, on the basis of the emission of the FRET acceptor XL665 (665 nm and 620 nm). A decrease in signal (measured as Well Ratio; calculated from the Formula: [(E665 nm/E620 nm)×10000]) can be attributed to the presence of cAMP and thus to the activity of sAC. First, 1.5 μl of the test substance (in 30% DMSO) is placed in each well of a 384-well test plate (polystyrene; 384, NV), and in the solvent controls only 30% DMSO. Then 10 μl of a dilute sAC enzyme solution is applied (enzyme stock solution in 300 mM NaCl, 10% glycerol; pH 7.6; enzyme intermediate and final dilution a) 1:10 and b) 1:2000 in each case in: 1.0 mM MnCl2; 0.2% BSA; 50 mM Tris pH 7.5 in H2O). The enzyme reaction is started by adding 5 μl of the ATP substrate solution (200 μM ATP in H2O) and after incubation (25 min at room temperature) stopped by adding 5 μl of the stop solution (200 μM EDTA in PBS). Finally the whole reaction is adjusted to a total volume of 91.5 μl by adding 70 μl PBS.
Next, 8 μl of detection solution 1 is placed in a well of the 384-well measuring plate (measuring plate: polystyrene; 384, SV—black; detection solution 1: 50 μl cAMP-XL665; 950 μl reconstituted buffer; 2200 μl PBS; cAMP-XL665: prepared by adding 5 ml H2O to the lyophilized product according to the instructions in Cis bio Kit: #62AMPPEC; storage: in aliquots at −80° C.). Next, 3 μl from the 91.5 μl is added to the corresponding well of the test plate. Finally, 8 μl of detection solution 2 is added (detection solution 2: 50 μl anti-cAMP-Eu[K]-AB; 950 μl reconstituted buffer; 2200 μl PBS; anti-cAMP-Eu[K]-AB: prepared according to the instructions in Cis bio Kit: #62AMPPEC; storage: in aliquots at −80° C.).
After further incubation for 90 min at room temperature, the HTRF result is measured either on the Packard Discovery or with the RubiStar HTRF measuring instrument (delay: 50 μs; integration time: 400 μs).
(In TR-FRET formats the signal depends on donor and acceptor labels being close together.)

For series [2] the following is noted: known from the literature; cited from earlier work.

Each structure is given as a SMILES string.

soluble, sperm-specific adenylate cyclase (sAC), sequence (Q96PN6 whole entry): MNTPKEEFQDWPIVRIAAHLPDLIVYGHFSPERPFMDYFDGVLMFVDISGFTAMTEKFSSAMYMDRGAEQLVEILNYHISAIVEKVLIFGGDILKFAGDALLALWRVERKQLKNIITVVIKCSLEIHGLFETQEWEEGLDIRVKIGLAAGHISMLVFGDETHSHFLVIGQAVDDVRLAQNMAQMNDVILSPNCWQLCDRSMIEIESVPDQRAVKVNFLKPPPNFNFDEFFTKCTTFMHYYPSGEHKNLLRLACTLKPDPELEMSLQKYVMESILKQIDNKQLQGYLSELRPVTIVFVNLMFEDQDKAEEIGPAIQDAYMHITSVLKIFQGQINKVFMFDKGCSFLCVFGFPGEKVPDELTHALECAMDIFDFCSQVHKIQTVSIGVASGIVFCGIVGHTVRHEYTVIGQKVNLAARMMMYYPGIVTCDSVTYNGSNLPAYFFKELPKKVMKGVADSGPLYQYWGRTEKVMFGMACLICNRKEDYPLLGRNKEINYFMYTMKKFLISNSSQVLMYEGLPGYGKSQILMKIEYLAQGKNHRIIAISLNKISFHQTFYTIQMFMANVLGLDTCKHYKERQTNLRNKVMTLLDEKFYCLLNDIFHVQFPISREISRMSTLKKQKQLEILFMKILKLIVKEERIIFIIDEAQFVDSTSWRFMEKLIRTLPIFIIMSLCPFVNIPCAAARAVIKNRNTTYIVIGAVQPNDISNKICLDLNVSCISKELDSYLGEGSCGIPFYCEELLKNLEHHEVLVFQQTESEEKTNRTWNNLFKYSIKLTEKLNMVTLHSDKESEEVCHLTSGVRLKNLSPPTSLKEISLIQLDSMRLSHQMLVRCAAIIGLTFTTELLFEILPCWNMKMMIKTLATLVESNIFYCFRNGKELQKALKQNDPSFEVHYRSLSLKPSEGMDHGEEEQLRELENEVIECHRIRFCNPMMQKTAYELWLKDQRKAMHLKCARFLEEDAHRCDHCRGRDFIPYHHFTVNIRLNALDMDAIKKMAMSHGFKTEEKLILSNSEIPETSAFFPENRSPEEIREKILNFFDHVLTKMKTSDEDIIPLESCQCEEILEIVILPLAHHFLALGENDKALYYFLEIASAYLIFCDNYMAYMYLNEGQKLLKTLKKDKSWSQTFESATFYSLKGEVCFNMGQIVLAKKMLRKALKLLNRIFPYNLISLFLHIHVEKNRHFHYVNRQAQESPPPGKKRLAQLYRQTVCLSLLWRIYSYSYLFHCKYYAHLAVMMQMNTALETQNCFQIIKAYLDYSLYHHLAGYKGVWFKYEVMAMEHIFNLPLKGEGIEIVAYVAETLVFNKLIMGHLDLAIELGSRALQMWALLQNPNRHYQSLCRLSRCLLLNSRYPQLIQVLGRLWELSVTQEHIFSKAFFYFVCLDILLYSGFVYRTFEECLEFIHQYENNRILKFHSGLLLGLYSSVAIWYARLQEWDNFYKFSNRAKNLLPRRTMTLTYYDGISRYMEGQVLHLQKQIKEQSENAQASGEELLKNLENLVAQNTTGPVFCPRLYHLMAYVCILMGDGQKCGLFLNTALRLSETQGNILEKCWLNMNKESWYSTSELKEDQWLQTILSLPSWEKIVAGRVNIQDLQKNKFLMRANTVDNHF

With `CC(CO)NC(=O)c1[nH]c2ncc(NS(=O)(=O)c3ccc(C(C)(C)C)cc3)cc2c1-c1ccccc1` (racemic) [Example 6, (±)-N-(2-Hydroxy-1-methylethyl)-5-(4-tert-butylphenylsulfonyl-amino)-3-phenyl-1H-pyrrolo[2,3-b]pyridine-2-carboxamide], the 50% inhibitory concentration (IC50) in series [1] was determined as 37 nM.

For the compound `CC(C)(C)c1ccc(S(=O)(=O)Nc2cnc3[nH]c(C(=O)NCC4CCCO4)c(-c4ccccc4)c3c2)cc1` (racemic) [Example 10, (±)-N-(Tetrahydrofuran-2-ylmethyl)-5-(4-tert-butylphenylsulfonyl-amino)-3-phenyl-1H-pyrrolo[2,3-b]pyridine-2-carboxamide], in series [1], the IC50 turned out to be 64 nM.

For `CC(C)(C)c1ccc(S(=O)(=O)Nc2cnc3[nH]c(C(=O)N[C@H]4CCC[C@H]4O)c(-c4ccccc4)c3c2)cc1` [Example 8, (1S,2R)—N-(2-Hydroxycyclopentyl)-5-(4-tert-butylphenylsulfonyl-amino)-3-phenyl-1H-pyrrolo[2,3-b]pyridine-2-carboxamide], the 50% inhibitory concentration (IC50) in series [1] turned out to be 13 nM.

Turning to `O=C(N[C@H]1CCC[C@H]1O)c1[nH]c2ncc(NS(=O)(=O)c3ccc(C(F)(F)F)cc3)cc2c1-c1ccccc1` [Example 22, (1S,2R)—N-(2-Hydroxycyclopentyl)-3-phenyl-5-(4-trifluoromethyl-phenylsulfonylamino)-1H-pyrrolo[2,3-b]pyridine-2-carboxamide], the concentration for half-maximal inhibition (IC50) in series [1] was 25 nM.

As to `Cc1cc2c(C(C)C)c(O)c(O)c(C=O)c2c(O)c1-c1c(C)cc2c(C(C)C)c(O)c(O)c(C=O)c2c1O` [gossypol], the toxicity result in series [2] is recorded as “inherently toxic”.

Values taken from patent US20090098189A1, “AZAINDOLES AS INHIBITORS OF SOLUBLE ADENYLATE CYCLASE” (priority 2007, published 2009).
